Laboratory results from patent US11578097B2, “Tetrazole derivatives of bile acids as FXR/TGR5 agonists and methods of use thereof” (Enanta Pharmaceuticals, Inc., priority 2014, dated 2023).

Biological target: T1, human FXR (NR1H4) (Homo sapiens, UniProt Q96RI1)
T1 construct: host or cells: CHO (Chinese hamster ovary) cells
T1 sequence (Q96RI1 1-486): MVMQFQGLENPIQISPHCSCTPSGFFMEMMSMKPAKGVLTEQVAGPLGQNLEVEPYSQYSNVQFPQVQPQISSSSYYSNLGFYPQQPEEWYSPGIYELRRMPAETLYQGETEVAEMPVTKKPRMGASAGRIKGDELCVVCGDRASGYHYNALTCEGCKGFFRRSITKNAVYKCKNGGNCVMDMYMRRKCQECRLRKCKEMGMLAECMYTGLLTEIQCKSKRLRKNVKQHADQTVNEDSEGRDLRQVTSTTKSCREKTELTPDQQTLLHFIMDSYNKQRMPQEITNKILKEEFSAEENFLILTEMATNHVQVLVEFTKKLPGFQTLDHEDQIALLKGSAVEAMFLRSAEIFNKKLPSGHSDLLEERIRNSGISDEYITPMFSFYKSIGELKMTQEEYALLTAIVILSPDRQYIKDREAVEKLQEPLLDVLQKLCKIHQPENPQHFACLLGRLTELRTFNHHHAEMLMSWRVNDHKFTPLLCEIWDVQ
Assay: Human FXR (NR1H4) reporter assay (Gal4 promoter driven transactivation, luciferase)
Format: cell-based
Settings: for Efficacy (%): normalized to CDCA set as 100%
Description: Assays Human FXR (NR1H4) Assay Determination of a ligand mediated Gal4 promoter driven transactivation to quantify ligand binding mediated activation of FXR. FXR Reporter Assay kit purchased from Indigo Bioscience (Catalogue number: IB00601) to determine the potency and efficacy of compound developed by Enanta that can induce FXR activation. The principal application of this reporter assay system is to quantify functional activity of human FXR. The assay utilizes non-human mammalian cells, CHO (Chinese hamster ovary) cells engineered to express human NR1H4 protein (referred to as FXR). Reporter cells also incorporate the cDNA encoding beetle luciferase which catalyzes the substrates and yields photon emission. Luminescence intensity of the reaction is quantified using a plate-reading luminometer, Envision. Reporter Cells include the luciferase reporter gene functionally linked to an FXR responsive promoter. Thus, quantifying changes in luciferase expression in the treated reporter cells provides a sensitive surrogate measure of the changes in FXR activity. […] The assay is according to the manufacturer's instructions. In brief, the assay was performed in white, 96 well plates using final volume of 100 ul containing cells with different doses of compounds. Retrieve Reporter Cells from −80° C. storage. Perform a rapid thaw of the frozen cells by transferring a 10 ml volume of 37° C. cell recovery medium into the tube of frozen cells. Recap the tube of Reporter Cells and immediately place it in a 37° C. water bath for 5-10 minutes. Retrieve the tube of Reporter Cell Suspension from the water bath. Sanitize the outside surface of the tube with a 70% alcohol swab, and then transfer it into the cell culture hood. Dispense 90 μl of cell suspension into each well of the 96-well Assay Plate. Transfer the plate into 37° C. incubator, allowing the cells adherent to the bottom of the well. Dilute compounds in Dilution Plate (DP), and administrate to cells at Assay Plate (AP). DMSO content of the samples was kept at 0.2%. Cells were incubated for additional 22 hours before luciferase activities were measured. Thirty minutes before intending to quantify FXR activity, remove Detection Substrate and Detection Buffer from the refrigerator and place them in a low-light area so that they may equilibrate to room temperature. Remove the plate's lid and discard all media contents by ejecting it into an appropriate waste container. Gently tap the inverted plate onto a clean absorbent paper towel to remove residual droplets. Cells will remain tightly adhered to well bottoms. Add 100 μl of luciferase detection reagent to each well of the assay plate. Allow the assay plate to rest at room temperature for at least 5 minutes following the addition of LDR. Set the instrument (Envision) to perform a single 5 second “plate shake” prior to reading the first assay well. Read time may be 0.5 second (500 mSec) per well.

Row | Compound | EC50 [nM] | Efficacy (%)
1 | CC[C@H]1[C@@H](O)[C@@H]2[C@H](CC[C@]3(C)[C@@H]([C@H](C)CCc4nnn[nH]4)CC[C@@H]23)[C@@]2(C)CC[C@@H](O)C[C@@H]12 [Example 1] | 1000 to 10000 | 397
2 | CC[C@H]1[C@@H](O)[C@@H]2[C@H](CC[C@]3(C)[C@@H]([C@H](C)CCCc4nnn[nH]4)CC[C@@H]23)[C@@]2(C)CC[C@@H](O)C[C@@H]12 [Example 2] | 100 to 1000 | 354
3 | CC[C@H]1[C@@H](O)[C@@H]2[C@H](CC[C@]3(C)[C@@H]([C@H](C)Cc4nnn[nH]4)CC[C@@H]23)[C@@]2(C)CC[C@@H](O)C[C@@H]12 [Example 3] | 1000 to 10000 | 192
4 | CC[C@H]1[C@@H](O)[C@@H]2[C@H](CC[C@]3(C)[C@@H]([C@H](C)CCCCc4nn[nH]n4)CC[C@@H]23)[C@@]2(C)CC[C@@H](O)C[C@@H]12 [Example 4] | 100 to 1000 | 234
5 | CC[C@H]1[C@@H](O)[C@@H]2[C@H](CC[C@]3(C)[C@@H]([C@H](C)CCCCCc4nn[nH]n4)CC[C@@H]23)[C@@]2(C)CC[C@@H](O)C[C@@H]12 [Example 5] | 100 to 1000 | 191
6 | CC[C@H]1[C@@H](O)[C@@H]2[C@H](CC[C@]3(C)[C@@H]([C@H](C)CCC(=O)Nc4nnn[nH]4)CC[C@@H]23)[C@@]2(C)CC[C@@H](O)C[C@@H]12 [Example 6] | 1000 to 10000 | 105
